Tests used:
Candida albicans = assay: Growth inhibition of Candida albicans JRW#5; type: functional, organism-based
Erythrocyte = assay: Hemolytic activity in human erythrocytes at 1 mM; type: functional
CHO [1] = assay: Cytotoxicity against CHO cells at 1.0 mM after 3 days relative to control; type: cell-based, Cricetulus griseus; conditions: chinese hamster, 72 h, 1000 µM
CHO [2] = assay: Cytotoxicity against CHO cells at 0.1 mM after 3 days relative to control; type: cell-based, Cricetulus griseus; conditions: chinese hamster, 72 h, 100 µM

C1C2CC3CC1CC(C[C@H]1OOC[C@H]4O[C@@H]14)(C2)C3
IC50 (Candida albicans): 125 µM

C1CCC([C@@]23COOC[C@@H]2O3)CC1
IC50 (Candida albicans): 500 µM

C[C@H]1OO[C@@H](COCc2ccccc2)[C@H]2O[C@H]21
IC50 (Candida albicans): 63 µM

C1=C[C@@H](C23CC4CC(CC(C4)C2)C3)OOC1
IC50 (Candida albicans): 31 µM
Activity (Erythrocyte): 100%

C1C2CC3CC1CC(C[C@H]1OOC[C@@H]4O[C@@H]41)(C2)C3
IC50 (Candida albicans): 125 µM

C1=C[C@@H](COCc2ccccc2)OO[C@H]1COCc1ccccc1
IC50 (Candida albicans): 16 µM
Activity (CHO [1]): Active
Activity (Erythrocyte): 2%

C1C2CC3CC1CC([C@@H]1OO[C@H](C45CC6CC(CC(C6)C4)C5)[C@H]4O[C@H]41)(C2)C3
IC50 (Candida albicans): > 1000 µM

C1=C(C2CCCCC2)COOC1
IC50 (Candida albicans): 63 µM

C1CC2OOC1C1OC21 (stereo not drawn)
IC50 (Candida albicans): 16 µM
Activity (CHO [2]): Active
Activity (CHO [1]): Active
Activity (Erythrocyte): 0%

CCCCCCC1=CCOOC1
IC50 (Candida albicans): 250 µM
Activity (Erythrocyte): 61%

CCCCCC[C@@]12COOC[C@@H]1O2
IC50 (Candida albicans): 500 µM
Activity (Erythrocyte): 31%

CCCCCCC[C@H]1OOC[C@@H]2O[C@@]21CCCCCC
IC50 (Candida albicans): > 1000 µM

C[C@@H]1C=C[C@H](CO)OO1
IC50 (Candida albicans): 16 µM
Activity (CHO [2]): Active
Activity (Erythrocyte): 0%

CCCCCCC[C@@H]1C=CCOO1
IC50 (Candida albicans): 63 µM
Activity (Erythrocyte): 60%

CCCCCCC[C@H]1OOC[C@H]2O[C@@]12CCCCCC
IC50 (Candida albicans): > 1000 µM

C[C@@H]1C=C[C@H](COCc2ccccc2)OO1
IC50 (Candida albicans): 250 µM

CCCCCCC[C@H]1OOCC=C1CCCCCC
IC50 (Candida albicans): 250 µM

C[C@H]1OO[C@@H](COC(=O)C23CC4CC(CC(C4)C2)C3)[C@H]2O[C@H]21
IC50 (Candida albicans): 125 µM

CCCCCCC[C@H]1OOC[C@H]2O[C@@H]12
IC50 (Candida albicans): 63 µM

C[C@@H]1C=C[C@H](COC(=O)C23CC4CC(CC(C4)C2)C3)OO1
IC50 (Candida albicans): 125 µM

C[C@H]1OO[C@@H](COC(=O)C23CC4CC(CC(C4)C2)C3)[C@@H]2O[C@@H]21
IC50 (Candida albicans): 250 µM

C[C@@H]1C=C[C@H](CCCO)OO1
IC50 (Candida albicans): 250 µM

C[C@@H]1C=C[C@H](COC(=O)CC23CC4CC(CC(C4)C2)C3)OO1
IC50 (Candida albicans): 125 µM

C[C@H]1OO[C@@H](COC(=O)CC23CC4CC(CC(C4)C2)C3)[C@@H]2O[C@@H]21
IC50 (Candida albicans): > 1000 µM

c1ccc(COC[C@@H]2OO[C@H](COCc3ccccc3)[C@H]3O[C@H]32)cc1
IC50 (Candida albicans): 250 µM

c1ccc(COC[C@@H]2OO[C@H](COCc3ccccc3)[C@@H]3O[C@@H]32)cc1
IC50 (Candida albicans): 63 µM
Activity (CHO [2]): Active
Activity (Erythrocyte): 1%

CCCCCCC[C@H]1OO[C@@H](CCC)[C@H]2O[C@H]21
IC50 (Candida albicans): 500 µM
Activity (Erythrocyte): 25%

CCCCCCC[C@@H]1C=C[C@H](CCC)OO1
IC50 (Candida albicans): 250 µM
Activity (Erythrocyte): 86%

C1=C(C23CC4CC(CC(C4)C2)C3)COOC1
IC50 (Candida albicans): 63 µM

C[C@H]1OO[C@@H](CCCO)[C@@H]2O[C@@H]21
IC50 (Candida albicans): > 1000 µM

C[C@H]1OO[C@@H](CO)[C@@H]2O[C@@H]21
IC50 (Candida albicans): > 1000 µM

C1=C[C@@H](CC23CC4CC(CC(C4)C2)C3)OOC1
IC50 (Candida albicans): 125 µM

C1=C[C@H](C23CC4CC(CC(C4)C2)C3)OO[C@@H]1C12CC3CC(CC(C3)C1)C2
IC50 (Candida albicans): > 1000 µM

CCCCCCC[C@H]1OOC[C@@H]2O[C@@H]21
IC50 (Candida albicans): 63 µM
Activity (Erythrocyte): 33%

C1C2CC3CC1CC([C@@]14COOC[C@@H]1O4)(C2)C3
IC50 (Candida albicans): 125 µM

C[C@H]1OO[C@@H](COC(=O)CC23CC4CC(CC(Br)(C4)C2)C3)[C@H]2O[C@H]21
IC50 (Candida albicans): > 1000 µM

C[C@@H]1C=C[C@H](COC(=O)CC23CC4CC(CC(Br)(C4)C2)C3)OO1
IC50 (Candida albicans): 250 µM

C[C@H]1OO[C@@H](COC(=O)CC23CC4CC(CC(Br)(C4)C2)C3)[C@@H]2O[C@@H]21
IC50 (Candida albicans): > 1000 µM

C1C2CC3CC1CC([C@H]1OOC[C@@H]4O[C@@H]41)(C2)C3
IC50 (Candida albicans): 31 µM
Activity (Erythrocyte): 41%

C[C@H]1OO[C@@H](COC(=O)CC23CC4CC(CC(C4)C2)C3)[C@H]2O[C@H]21
IC50 (Candida albicans): 250 µM

c1ccc([C@H]2OO[C@@H](c3ccccc3)[C@@H]3O[C@@H]32)cc1
IC50 (Candida albicans): 500 µM

C1CCC(C[C@H]2OOC[C@@H]3O[C@@H]32)CC1
IC50 (Candida albicans): 125 µM

CCCCCCC[C@H]1OO[C@@H](CCC)[C@@H]2O[C@@H]21
IC50 (Candida albicans): 500 µM
Activity (Erythrocyte): 45%

C1=C[C@@H](CC2CCCCC2)OOC1
IC50 (Candida albicans): 125 µM

C1CCC(C[C@H]2OOC[C@H]3O[C@@H]23)CC1
IC50 (Candida albicans): 125 µM

C1=C[C@H](c2ccccc2)OO[C@@H]1c1ccccc1
IC50 (Candida albicans): 31 µM
Activity (CHO [2]): Active
Activity (CHO [1]): Active

C[C@H]1OO[C@@H](COCc2ccccc2)[C@@H]2O[C@@H]21 (single isomer, unassigned)
IC50 (Candida albicans): 125 µM

C[C@@H]1[C@H](O)[C@@H](C)/C=C/C=C/C=C/C=C/C=C/C=C/C=C/[C@H](O[C@@H]2O[C@H](C)[C@@H](O)[C@H](N)[C@@H]2O)C[C@@H]2O[C@](O)(C[C@@H](O)C[C@@H](O)[C@H](O)CC[C@@H](O)C[C@@H](O)CC(=O)O[C@H]1C)C[C@H](O)[C@H]2C(=O)O [AMPHOTERICIN B]
IC50 (Candida albicans): < 0.5 µM
